Laboratory results published in patent US20230140941A1, “NON-ATP/CATALYTIC SITE P38 MITOGEN ACTIVATED PROTEIN KINASE INHIBITORS” (UNIVERSITY OF MARYLAND, BALTIMORE, priority 2020, published 2023).

What was measured:
[1] = tested on: patients with Crohn's disease; conditions: cited from earlier work
[2] = tested on: LPS/hyperthermia-induced ALI; assay: Mouse LPS/hyperthermia-induced acute lung injury model, pretreatment; conditions: for mice died within 24 h: 1000 μg i.p. 30 min prior to 50 μg LPS i.t. and hyperthermia
[3] = tested on: IL-8-directed neutrophil TEM through HMVECLs; assay: Neutrophil transendothelial migration (TEM) assay; format: cell-based, human; conditions: HMVECLs 39.5° C. 6 h
Procedure: Neutrophil transendothelial migration (TEM) assay: Neutrophils were isolated from heparinized venous blood that was collected from healthy volunteers using a protocol approved by the University of Maryland Institutional Review Board and TEM of calcein-labeled neutrophils through HMVECLs was measured.

HMVECLs [4] = assay: TNFα-induced gene expression in HMVECLs (RNASeq); conditions: 10 μM SB203580
[5] = tested on: p38-dependent phosphorylation of Stat-1; assay: Inhibition of substrate phosphorylation in HeLa cells, Stat-1; format: cell-based, human; conditions: 10 μM SB203580 or 50 μM UM101 30 min, then anisomycin
Source text: (§1) Cell extracts prepared in RIPA buffer containing protease and phosphatase inhibitors were resolved by SDS-PAGE, transferred to PVDF membrane, blocked with 5% nonfat dry milk, probed with primary antibodies against phosphorylated MK2 and Stat-1, and total p38α as a loading control. Bands were detected using secondary antibodies conjugated to infrared fluorophores and infrared fluorescence imaging (Odyssey; LICOR).

HMVECL monolayers = assay: Endothelial permeability assay (10 kDa dextran flux); format: cell-based, human; conditions: TNFα and 39.5° C. for 6 h
Procedure: Endothelial permeability assay: Permeability of HMVECL monolayers was assessed by measuring transendothelial flux of 10 kDa dextran conjugated to Cascade blue fluorescent dye for 30 min at 37° C. in Matrigel-coated 3 μm pore size Transwell plates.

[6] = tested on: p38-dependent phosphorylation of MK2; assay: Inhibition of substrate phosphorylation in HeLa cells, MK2; format: cell-based, human; conditions: 10 μM SB203580 or 50 μM UM101 30 min, then anisomycin
Source text: as §1

p38β [7] = target: T1, p38β (Homo sapiens, UniProt Q15759); assay: Differential scanning fluorimetry (DSF), p38β; format: binding
T1 construct: HA (N); made in house; host or cells: E. coli BL21

p38α vs. p38β = conditions: cited from earlier work
LPS-induced lung injury = assay: Mouse acute lung injury, treatment 6 h post-LPS (FIG. 10); format: in vivo; conditions: 50 μg LPS i.t., 24 h at 39° C., 1 mg in 0.5 ml DMSO 6 h post-LPS
Procedure: All mice received 50 μg LPS i.t. and were kept 24 h at 39° C.; all treatments 1 mg in 0.5 ml DMSO given 6 h post-LPS; mean±SM, n=5, * p=0.03 vs DMSO #1; † p=0.16 vs DMSO #2. Lung injury was assessed by measuring total protein in the lung lavage fluid.
(§2) First, the compounds can block thrombin-induced cell permeability in human vascular endothelial cells (FIG. 8). […] Mice were pretreated i.p. with 1 mg of test compounds and then treated with […] LPS i.t. at 39° C. to induce inflammation. Lung injury was assessed by measuring total protein in the lung lavage fluid. […] All mice received 50 μg LPS i.t. and were kept 24 h at 39° C.; all treatments 1 mg in 0.5 ml DMSO given 6 h post-LPS; mean±SM, n=5, * p=0.03 vs DMSO #1; † p=0.16 vs DMSO #2. Lung injury was assessed by measuring total protein in the lung lavage fluid.

[8] = tested on: LPS-induced lung inflammation; assay: Mouse acute lung injury, pretreatment i.p. 1 mg (FIG. 9); format: in vivo; conditions: pretreated i.p. 1 mg, then 100 mg LPS i.t. at 39° C.
Procedure: Mice were pretreated i.p. with 1 mg of test compounds and then treated with […] LPS i.t. at 39° C. to induce inflammation. Lung injury was assessed by measuring total protein in the lung lavage fluid.
as §2

[9] = target: unphosphorylated recombinant human p38α (Homo sapiens, UniProt Q16539); assay: Differential scanning fluorimetry (DSF), p38α; conditions: for p38α ΔTm (° C.) @100 μM: change in melting temperature relative to DMSO control in DSF assay; for increase in melting temperature of p38α: added at 100 μM
HMVECLs [10] = assay: Cytotoxicity, MTS assay; format: cell-based, human; conditions: 100 μM for 48 h
HMVECLs [11] = assay: Cytotoxicity, LDH release; format: cell-based, human; conditions: 100 μM for 48 h
recombinant ERK2 = recombinant ERK2 (Homo sapiens, UniProt P28482); assay: Differential scanning fluorimetry (DSF), ERK2; format: binding; conditions: for ERK2 ΔTm (° C.) @100 μM: change in melting temperature relative to DMSO control in DSF assay; for stabilization of ERK2 in DSF: 10-100 μM
[12] = target: T2, p38α mutant (R49K/HL 107-8TF/K165R) (Homo sapiens, UniProt Q16539, H107T/K165R/L108F/R49K); assay: DSF, p38α mutant with 4 mutations in CADD-targeted pocket; format: binding; conditions: four of ten target pocket amino acids substituted
T2 construct: made in house; host or cells: E. coli BL21

p38β [13] = target: T1, p38β; assay: STD-NMR, p38β; format: binding; conditions: 200 μM UM101, 5 μM protein
Procedure: (§3) Spectra were recorded on an Agilent DD2 500-MHz spectrometer equipped with a 5-mm inverse HFCN probe head at 300 K. During each transient, the protein was saturated with a series of 58 […]-shaped pulses (50 ms, 1 ms delay between pulses) using the vendor-supplied STD-ES pulse sequence, for a total saturation time of 3 seconds. The on-resonance irradiation of protein was done at 0.5 ppm and off-resonance irradiation at 30 ppm. The vendor-supplied WATERGATE pulse sequence was used to suppress the water signal in the STD spectrum. The on-resonance and off-resonance pulse sequences were subtracted internally. A total of 16,384 transients were collected for each STD experiment with a 1 second delay between acquisitions, 6000 Hz spectral width, and 1.3 second acquisition time.

mutated p38α = target: T3, mutated p38α (Homo sapiens, UniProt Q16539, H107T/K165R/L108F/R49K); assay: STD-NMR, mutated p38α; format: binding; conditions: 200 μM UM101, 5 μM protein
T3 construct: made in house; host or cells: E. coli BL21
Procedure: as §3

p38α = target: T4, p38α (Homo sapiens, UniProt Q16539); assay: STD-NMR, p38α; format: binding; conditions: 200 μM UM101, 5 μM protein
T4 construct: made in house; host or cells: E. coli BL21
Procedure: as §3

rheumatoid arthritis = conditions: two trials; cited from earlier work
[14] = tested on: patients at-risk for ARDS; conditions: cited from earlier work
[15] = tested on: patients with hypercholesterolemia; conditions: cited from earlier work

Chain of recombinant ERK2 (P28482 whole entry, species assumed): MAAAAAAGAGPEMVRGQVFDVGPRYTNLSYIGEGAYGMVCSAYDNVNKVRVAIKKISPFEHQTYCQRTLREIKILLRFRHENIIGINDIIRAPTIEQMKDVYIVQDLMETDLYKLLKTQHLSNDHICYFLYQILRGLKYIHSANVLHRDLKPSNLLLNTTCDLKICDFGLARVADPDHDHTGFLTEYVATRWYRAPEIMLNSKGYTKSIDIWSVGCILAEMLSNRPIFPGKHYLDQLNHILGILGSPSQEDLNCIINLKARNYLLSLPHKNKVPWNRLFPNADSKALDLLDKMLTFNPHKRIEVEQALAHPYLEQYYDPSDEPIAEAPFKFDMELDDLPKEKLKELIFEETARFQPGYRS
Chain of unphosphorylated recombinant human p38α (Q16539 whole entry): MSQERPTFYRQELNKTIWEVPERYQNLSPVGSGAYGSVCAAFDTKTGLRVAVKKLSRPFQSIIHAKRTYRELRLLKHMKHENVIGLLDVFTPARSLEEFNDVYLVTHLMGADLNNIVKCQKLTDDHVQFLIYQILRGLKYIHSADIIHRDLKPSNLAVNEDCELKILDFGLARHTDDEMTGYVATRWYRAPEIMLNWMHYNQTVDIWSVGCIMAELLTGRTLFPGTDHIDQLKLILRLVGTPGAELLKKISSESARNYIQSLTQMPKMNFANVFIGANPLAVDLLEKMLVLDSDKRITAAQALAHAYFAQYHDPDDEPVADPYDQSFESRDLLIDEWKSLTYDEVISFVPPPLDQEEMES
T1 sequence (Q15759 whole entry): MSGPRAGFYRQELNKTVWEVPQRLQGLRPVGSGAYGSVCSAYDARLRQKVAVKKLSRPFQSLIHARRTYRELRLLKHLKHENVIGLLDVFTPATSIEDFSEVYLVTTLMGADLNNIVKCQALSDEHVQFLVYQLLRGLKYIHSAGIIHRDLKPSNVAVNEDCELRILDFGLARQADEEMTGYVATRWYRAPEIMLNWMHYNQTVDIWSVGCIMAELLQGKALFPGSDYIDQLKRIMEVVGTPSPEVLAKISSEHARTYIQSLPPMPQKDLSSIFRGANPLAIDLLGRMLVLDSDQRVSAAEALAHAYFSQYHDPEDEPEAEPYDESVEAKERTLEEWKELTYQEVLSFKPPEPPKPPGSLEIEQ
T4 sequence (Q16539 whole entry): as the sequence (Q16539 whole entry) above
T3 sequence (Q16539 whole entry R49K/H107T/L108F/K165R): as the sequence (Q16539 whole entry) above, with R49K, H107T, L108F, K165R counted along it
T2 sequence (Q16539 whole entry R49K/H107T/L108F/K165R): as the sequence (Q16539 whole entry) above, with R49K, H107T, L108F, K165R counted along it

Cc1ccc(-n2nc(C(C)(C)C)cc2NC(=O)Nc2ccc(OCCN3CCOCC3)c3ccccc23)cc1 [BIRB 796]
clinical effect [1]: no clinical effect | serum CRP levels [1]: transiently reduced

C[S+]([O-])c1ccc(-c2nc(-c3ccncc3)c(-c3ccc(F)cc3)[nH]2)cc1 (centres unmarked) [SB203580, reference compound]
reduction of lavage neutrophil content vs. DMSO-treated controls ([2]; 1000 μg i.p.): 46.8% | mice died within 24 h [2]: one of six | reduction of hyperthermia-augmented increase in neutrophil TEM ([3]; 10 μM): 84% | number of TNFα-induced genes with expression inhibited (HMVECLs [4]): 61 genes | number of genes with expression increased (HMVECLs [4]): 38 genes | anisomycin-stimulated phosphorylation of Stat-1 (immunoblot) [5]: reduced | reduction of TNFα/hyperthermia-induced permeability increase for 10 kDa dextran (HMVECL monolayers; 10 μM): 50% | anisomycin-stimulated phosphorylation of MK2 (immunoblot) [6]: reduced | stabilization of p38β in DSF (p38β [7]): stabilized both p38α and p38β | higher binding affinity for p38α than p38β (p38α vs. p38β): ~10 fold

CN(C)c1cccc2c(S(=O)(=O)Nc3ccc(CN4CCS(=O)(=O)CC4)cc3)cccc12 [SF-6-222]
protein leak into bronchoalveolar lavage fluid (total protein) (LPS-induced lung injury): reduced protein leak | protein leak into bronchoalveolar lavage fluid (total protein) [8]: reduced protein leak

O=C(Nc1ccc(CN2CCOCC2)cc1)c1ccc(Cl)cc1 [SF-7-009]
protein leak into bronchoalveolar lavage fluid (total protein) (LPS-induced lung injury): reduced protein leak | protein leak into bronchoalveolar lavage fluid (total protein) [8]: reduced protein leak

CN(C)c1cccc2c(S(=O)(=O)Nc3ccc(CN4CCOCC4)cc3)cccc12 [SF-7-044]
protein leak into bronchoalveolar lavage fluid (total protein) (LPS-induced lung injury): reduced protein leak

O=C1c2cc(S(=O)(=O)NCCO)ccc2-c2ccc(S(=O)(=O)NCCO)cc21 [UM60, N2,N7-di(2-hydroxyethyl)-9-oxo-9H-2,7-fluorenedisulfonamiide]
mice died within 24 h [2]: Four of six | stabilization of p38α in DSF [9]: stabilized p38α | p38α ΔTm (° C.) @100 μM [9]: 0.735 °C | increase in melting temperature of p38α [9]: ~0.7 °C | reduction of hyperthermia-augmented increase in neutrophil TEM ([3]; 10 μM): 18% | reduction of hyperthermia-augmented increase in neutrophil TEM ([3]; 25 μM): 89% | reduction of hyperthermia-augmented increase in neutrophil TEM ([3]; 50 μM): less than baseline levels | toxicity in MTS assay (HMVECLs [10]): Neither compound was toxic | reduction of TNFα/hyperthermia-induced permeability increase for 10 kDa dextran (HMVECL monolayers; 10 μM): no effect | reduction of TNFα/hyperthermia-induced permeability increase for 10 kDa dextran (HMVECL monolayers; 25 μM): no effect | reduction of TNFα/hyperthermia-induced permeability increase for 10 kDa dextran (HMVECL monolayers; 100 μM): 71% | toxicity in LDH release assay (HMVECLs [11]): Neither compound was toxic | ERK2 ΔTm (° C.) @100 μM (recombinant ERK2): 0.195 °C | stabilization of ERK2 in DSF (recombinant ERK2): not ERK2

O=C(Nc1ccc(CN2CCS(=O)(=O)CC2)cc1)c1ccc(Cl)cc1 [UM101, 4-chloro-N-{4-[(1,1-dioxo-1lambda˜6˜-,4thiazinan-4-yl)methyl]phenyl}benzaniide]
binding to p38α mutant in DSF [12]: no UM101-binding | interaction with p38β in STD-NMR (p38β [13]): much weaker | reduction of lavage neutrophil content vs. DMSO-treated controls ([2]; 100 μg i.p.): 44.4% | reduction of lavage neutrophil content vs. DMSO-treated controls ([2]; 300 μg i.p.): 49.5% | reduction of lavage neutrophil content vs. DMSO-treated controls ([2]; 500 μg i.p.): 55.3% | reduction of lavage neutrophil content vs. DMSO-treated controls ([2]; 1000 μg i.p.): 54% | mice survived (24 h) ([2]; 100, 300, 500 or 1000 μg i.p. 30 min prior to 50 μg LPS i.t. and hyperthermia): All sixteen | stabilization of p38α in DSF [9]: only stabilized p38α | p38α ΔTm (° C.) @100 μM [9]: 0.667 °C | increase in melting temperature of p38α [9]: ~0.7 °C | reduction of hyperthermia-augmented increase in neutrophil TEM ([3]; 10 μM): 95% | reduction of hyperthermia-augmented increase in neutrophil TEM ([3]; 25 μM): less than baseline levels | reduction of hyperthermia-augmented increase in neutrophil TEM ([3]; 50 μM): less than baseline levels | interaction with mutated p38α in STD-NMR (mutated p38α): much weaker | toxicity in MTS assay (HMVECLs [10]): Neither compound was toxic | interaction with p38α in STD-NMR (p38α): protons in both aromatic rings of UM101 interact with p38α | anisomycin-stimulated phosphorylation of Stat-1 (immunoblot) [5]: reduced | reduction of TNFα/hyperthermia-induced permeability increase for 10 kDa dextran (HMVECL monolayers; 10 μM): 74% | reduction of TNFα/hyperthermia-induced permeability increase for 10 kDa dextran (HMVECL monolayers; 25 μM): 89% | reduction of TNFα/hyperthermia-induced permeability increase for 10 kDa dextran (HMVECL monolayers; 100 μM): > 100% | toxicity in LDH release assay (HMVECLs [11]): Neither compound was toxic | anisomycin-stimulated phosphorylation of MK2 (immunoblot) [6]: reduced | stabilization of p38β in DSF (p38β [7]): only stabilized p38α | ERK2 ΔTm (° C.) @100 μM (recombinant ERK2): 0.0175 °C | stabilization of ERK2 in DSF (recombinant ERK2): not ERK2 | protein leak into bronchoalveolar lavage fluid (total protein) [8]: reduced protein leak

NC(=O)c1ccc(N(C(N)=O)c2c(F)cccc2F)nc1-c1ccc(F)cc1F [VX-702]
proportion of treated subjects with ACR20 symptom score vs. placebo (rheumatoid arthritis): small increases

Cc1cc(F)ccc1-c1nc(NC(CO)CO)nc2c1ccc(=O)n2-c1c(F)cccc1F [dilmapimod]
safety [14]: safe at the doses administered | serum C-reactive protein (CRP) levels [14]: modestly reduced

Cc1c(F)cc(C(=O)NC2CC2)cc1-c1ccc(C(=O)NCC(C)(C)C)cn1 [losmapimod]
serum CRP [15]: reduced serum CRP | vascular relaxation [15]: improved vascular relaxation
